{"source": "patent US12246009B2", "about": "“Compositions and methods for treating neurodegenerative, myodegenerative, and lysosomal storage disorders” (GEORGETOWN UNIVERSITY, priority 2018, dated 2025)", "key": {"[1]": {"tested_on": "B35 cells", "experiment": "MTT assay, cell viability", "type": "cell-based, rat", "conditions": "1 μM, 16 hours of treatment, compared to control", "procedure": "Rat neuroblastoma B35 cells were grown in Dulbecco's Modified Eagle's Medium (DMEM) with 10% Fetal Bovine Serum (FBS) and 1% penicillin/streptomycin and incubated at 37° C. with 5% CO2. For the experiments, cells were transferred to 12-well plates (Cat. #150628, ThermoFisher, Waltham, MA) and grown to at least 70% confluence. Transient transfection was performed with 3 μg P301 L tau (Cat. #30145, Addgene) cDNA or 3 μg human α-synuclein cDNA using Fugene HD transfection reagent (Cat. #E2311, Promega, Madison WI) for 24 hours. Cells were treated with 1 mM, 100 μM, 10 μM, 1 μM, 0.1 μM, 0.01 μM, and 0.001 μM dissolved in DMSO or an equivalent 5 ul of DMSO for 5 hours. Cell culture media was collected and cells were harvested using sodium-tris, EDTA, NP-40 (STEN) buffer and centrifuged at 10,000×g for 20 minutes at 4′C and supernatant was collected. Cell viability was determined via lactate dehydrogenase assay (Cat. #88954, Thermofisher) and MTT assay (Cat. #V13154, Thermofisher). […]\nTo measure cell viability, cells were incubated with 500 μL of Dulbecco's Modified Eagle's Medium (DMEM) containing 50 μL of (3-[4,5-dimethylthiazol-2-yl]-2,5-diphenyl-tetrazolium bromide (MTT)) for 4 hours at 37° C. and 5% CO2. […] Absorbance was read against a blank containing 125 uL of media and MTT, and 250 uL of DMS at 570 nm."}, "[2]": {"tested_on": "pTau (231) (AT180)", "experiment": "pTau (231) (AT180) Western blot in rTG4510 transgenic mice", "type": "in vivo, mouse", "conditions": "1.25 mg/kg, 2.5 mg/kg or 5.0 mg/kg"}, "[3]": {"tested_on": "Tau (HT7)", "experiment": "Tau (HT7) in Tau transgenic mice", "type": "in vivo, mouse", "conditions": "seven days of treatment, 1.25 mg/kg and 2.5 mg/kg"}, "[4]": {"target": "T1, DDR1 (Mus musculus, UniProt Q03146)", "T1 construct": "Brains were collected and homogenized in 1.0 ml 1× STEN buffer; from tissue; host or cells: brain of rTg4510 or TgAPP mice", "T1 sequence (Q03146 20-911)": "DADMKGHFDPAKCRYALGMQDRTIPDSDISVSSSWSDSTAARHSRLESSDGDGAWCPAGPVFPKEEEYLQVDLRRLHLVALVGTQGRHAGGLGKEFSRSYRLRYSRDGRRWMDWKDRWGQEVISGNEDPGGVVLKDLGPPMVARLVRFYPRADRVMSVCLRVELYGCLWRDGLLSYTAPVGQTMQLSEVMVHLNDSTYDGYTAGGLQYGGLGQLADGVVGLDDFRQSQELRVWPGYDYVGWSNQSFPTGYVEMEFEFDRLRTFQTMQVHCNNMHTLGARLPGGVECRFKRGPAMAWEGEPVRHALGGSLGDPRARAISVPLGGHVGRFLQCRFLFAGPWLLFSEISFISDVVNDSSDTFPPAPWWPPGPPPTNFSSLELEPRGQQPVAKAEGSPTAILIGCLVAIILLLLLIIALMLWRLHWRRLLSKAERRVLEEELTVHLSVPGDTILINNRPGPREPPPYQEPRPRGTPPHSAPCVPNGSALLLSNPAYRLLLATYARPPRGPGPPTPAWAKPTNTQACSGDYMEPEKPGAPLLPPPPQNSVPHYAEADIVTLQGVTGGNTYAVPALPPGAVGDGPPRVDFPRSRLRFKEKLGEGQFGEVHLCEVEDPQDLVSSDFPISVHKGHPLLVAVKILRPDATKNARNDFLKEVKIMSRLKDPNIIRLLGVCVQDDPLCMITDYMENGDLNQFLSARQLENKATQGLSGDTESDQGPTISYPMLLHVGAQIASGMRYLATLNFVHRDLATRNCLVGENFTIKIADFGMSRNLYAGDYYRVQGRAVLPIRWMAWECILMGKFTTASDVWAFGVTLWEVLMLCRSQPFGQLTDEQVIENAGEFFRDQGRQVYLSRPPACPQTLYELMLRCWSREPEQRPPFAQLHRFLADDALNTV", "experiment": "Phosphorylated (active) DDR1 (pMCK10) immunoblot in rTG4510 mice", "type": "in vivo", "conditions": "for phosphorylated (active) DDR1 (pMCK10), immunoblot: 1.25 mg/kg or 2.5 mg/kg i.p."}, "[5]": {"target": "T2, Ab1 (Mus musculus, UniProt P00520)", "T2 construct": "Brains from treated mice compared with DMSO treated mice were homogenized in STEN lysis buffer; from tissue; host or cells: brain of rTg4510 or TgAPP mice", "experiment": "Activated Ab1 immunoblot in rTG4510 mice", "type": "in vivo", "conditions": "rTG4510 mice, 1.25, 2.5 or 5 mg/kg i.p., 7 days"}, "[6]": {"tested_on": "phosphorylated Tau (AT8)", "experiment": "Phosphorylated Tau (AT8) immunoblot in rTG4510 mice", "type": "in vivo, mouse", "conditions": "all three doses (1.25, 2.5, 5 mg/kg) i.p., 7 days"}, "[7]": {"tested_on": "human alpha-synuclein", "experiment": "Human alpha-synuclein ELISA and immunoblot in A53T mice", "type": "in vivo, mouse", "conditions": "2.5 mg/kg i.p.; for alpha-synuclein level in A53T mice: vs DMSO"}, "[8]": {"tested_on": "A53T mice", "experiment": "Open field test in A53T mice", "type": "in vivo, mouse", "conditions": "60-minute trial"}, "[9]": {"target": "T1, DDR1", "experiment": "Phosphorylated DDR1 immunoblot in transgenic APP mice", "type": "in vivo", "conditions": "21 days"}, "[10]": {"tested_on": "APP mice", "experiment": "Morris Water Maze test in APP mice", "type": "in vivo, mouse", "conditions": "1.25 mg/kg, trend, no significant difference between groups"}, "[11]": {"tested_on": "hippocampus of APP mice", "experiment": "Nissl staining of hippocampal sections of APP mice (cell death)", "conditions": "1.25 mg/kg and 2.5 mg/kg"}}, "note": "Entries after “also recorded” stand apart in the source; their conditions may differ."}
{"compound": "Cc1cccc(-c2cc3nccc(Nc4ccccc4)c3s2)c1", "note": "[BK40143, N-Phenyl-2-(m-tolyl)thieno[3,2-b]pyridin-7-amine]", "values": [{"measurement": "MTT, neuroprotective effect", "setting": "[1]", "result": "increase"}, {"measurement": "levels of pTau (231) (AT180), Western blot", "setting": "[2]", "result": "did not affect"}, {"measurement": "Tau (HT7) level", "setting": "[3]", "result": "significantly reduced"}, {"measurement": "phosphorylated (active) DDR1 (pMCK10), immunoblot", "setting": "[4]; rTG4510 mice, 7 days", "result": "deactivated DDR; also recorded: deactivated DDR1"}, {"measurement": "phosphorylated (active) DDR1 (pMCK10), immunoblot", "setting": "[4]; rTG4510 mice, 7 days, listed as BK-40143", "result": "in vivo inhibition of DDR1"}, {"measurement": "deactivation of DDR1 (phosphorylated DDR1 immunoblot)", "setting": "[4]; rTG4510 mice, 5 mg/kg i.p., 7 days", "result": "not"}, {"measurement": "deactivation of DDRs", "setting": "[4]; rTG4510 tauopathy mouse model, i.p., 7 consecutive days", "result": "about 50%"}, {"measurement": "activated Ab1, immunoblot", "setting": "[5]", "result": "did not engage"}, {"measurement": "activated Ab1, immunoblot", "setting": "[5]; listed as BK-40143", "result": "does not engage"}, {"measurement": "reduction of phosphorylated Tau (AT8), immunoblot", "setting": "[6]", "result": "41-49%"}, {"measurement": "reduction in the level of human alpha-synuclein, ELISA", "setting": "[7]; 21 consecutive days, vs DMSO treated A53T mice", "result": 39, "unit": "%"}, {"measurement": "alpha-synuclein level in A53T mice", "setting": "[7]; 21 consecutive days, 2.5 mg/kg", "result": "significantly reduces"}, {"measurement": "alpha-synuclein level in A53T mice", "setting": "[7]; 21 consecutive days, listed as BK-40143, 2.5 mg/kg", "result": "significantly decreased"}, {"measurement": "reduction in alpha-synuclein, immunoblots", "setting": "[7]; 21 days, immunoblots mirrored the ELISA", "result": 40, "unit": "%"}, {"measurement": "total distance travelled, open field", "setting": "[8]", "result": "did not show any difference"}, {"measurement": "total time spent moving, open field", "setting": "[8]", "result": "did not show any difference"}, {"measurement": "velocity of movements, open field", "setting": "[8]", "result": "significantly increased"}, {"measurement": "deactivation of DDR1 (phosphorylated DDR1 immunoblot)", "setting": "[9]; 1.25 mg/kg i.p.", "result": 40, "unit": "%"}, {"measurement": "deactivation of DDR1 (phosphorylated DDR1 immunoblot)", "setting": "[9]; 2.5 mg/kg i.p.", "result": 31, "unit": "%"}, {"measurement": "distance travelled before first entry to the platform, Morris Water Maze", "setting": "[10]", "result": "lower distance travelled before the first entry"}, {"measurement": "latency to the first entry, Morris Water Maze", "setting": "[10]", "result": "lower latency to first entry"}, {"measurement": "number of platform entries, Morris Water Maze", "setting": "[10]", "result": "higher numbers of platform entries"}, {"measurement": "cell death in the hippocampus (Nissl staining intensity)", "setting": "[11]", "result": "does not cause cell death"}]}
